Patent EP0248954B1, “Process for reducing the amount of DDT-related impurities in 1,1-bis(chlorophenyl)-2,2,2-trichloro-ethanol” (ROHM AND HAAS COMPANY, priority 1986, dated 1987)

Columns and labels:
Format in all cases: physicochemical
[1] = Single-stage extraction: partitioning of dicofol technical between n-heptane and 90% aqueous methanol
Protocol: A 50g sample of the desired dicofol solution was taken in a stoppered 100 ml graduated cylinder. […] They were then shaken well for two minutes. The samples were placed in an ice-water bath for 30 minutes. After the cooling period all samples were again shaken for 2 minutes. The samples were returned to the bath and allowed to equilibrate for 30 minutes. The samples were then removed from the bath and volumes recorded (Table I - Columns 2 and 3). The layers were then separated and each layer weighed (Columns 4 and 5). The separated layers were concentrated under vacuum (70°C, 1 mm Hg), weighed (columns 6 and 7) and analyzed (Table II).
In subsequent experiments, the partitioning of dicofol technical between n-heptane and 90% aqueous methanol was also evaluated at 23°C. The combined results from the 0°C and 23°C experiments are presented in Table IV where the results are expressed as distribution coefficients for dicofol and the two principal DDTr's found in dicofol technical, o,p'-DDE and p,p'-Cl-DDT. In all cases, the extractability of DDTr's exceeded that of dicofol by a significant margin.

[2] = Single-stage extraction: dicofol technical in aqueous ethanol of various concentrations partitioned with heptane; conditions: 30% dicofol technical solution, 50 grams, 40 grams heptane, 23°C
Protocol: Alternative solvent systems were evaluated. The distribution coefficients were determined by partitioning dicofol technical.
In Table VII, n-heptane was used as the extractant and different raffinate phase solvents were evaluated. In Table VIII, ethanol was used as the raffinate solvent and different extracting solvents were evaluated. In Table IX, n-heptane was used as the extractant and ethanol at different aqueous concentrations was used as the raffinate solvent. In the experiments set forth in Table IX, 30% dicofol technical solution (in the raffinate layer) was used and 50 grams of this solution was partitioned with 40 grams of the extracting solvent. In Table X, methanol was used as the raffinate solvent and different extracting solvents were evaluated. And in Table XI, using n-heptane as the extracting solvent and aqueous methanol as the raffinate solvent, the partition coefficients were determined as a function of temperature and concentration of dicofol.

[3] = Single-stage extraction: dicofol technical in aqueous methanols of various water content contacted with n-heptane; conditions: 50g of 33% solution of dicofol technical, 40 g n-heptane, 23°C
Protocol: The effect on distribution coefficients and selectivities of the amount of water in the methanol was determined. […] All distribution coefficients rise as the percentage of water increases. The selectivities rise initially but then begin to decrease at water levels higher than a maximum range. Importantly, if the water in the methanol is omitted, the addition of practical concentrations of dicofol technical causes the phases to coalesce.

[4] = dicofol technical spiked with 0.25 Wt % p,p'-DDD and separately p,p'-DDT, 50g of 33% solution in 90% aqueous methanol, 40g n-heptane, 23°C
[5] = dicofol technical spiked with 0.72 Wt % p,p'-DDD and separately p,p'-DDT, 50g of 33% solution in 90% aqueous methanol, 40g n-heptane, 23°C
[6] = dicofol technical spiked with 1.80 Wt % p,p'-DDD and separately p,p'-DDT, 50g of 33% solution in 90% aqueous methanol, 40g n-heptane, 23°C
[7] = heptane layer / raffinate layer, 50 g of dicofol solution conc. 8.4 in 90% aqueous methanol, 20 g heptane, 0 °C
[8] = heptane layer / raffinate layer, 50 g of dicofol solution conc. 10 in 90% aqueous methanol, 40 g heptane, 23 °C
[9] = heptane layer / raffinate layer, 50 g of dicofol solution conc. 16.7 in 90% aqueous methanol, 20 g heptane, 0 °C
[10] = heptane layer / raffinate layer, 50 g of dicofol solution conc. 16.7 in 90% aqueous methanol, 20 g heptane, 23 °C
[11] = heptane layer / raffinate layer, 50 g of dicofol solution conc. 20 in 90% aqueous methanol, 40 g heptane, 23 °C
[12] = heptane layer / raffinate layer, 50 g of dicofol solution conc. 30 in 90% aqueous methanol, 40 g heptane, 23 °C
[13] = heptane layer / raffinate layer, 50 g of dicofol solution conc. 33 in 90% aqueous methanol, 20 g heptane, 0 °C
[14] = heptane layer / raffinate layer, 50 g of dicofol solution conc. 40 in 90% aqueous methanol, 40 g heptane, 23 °C
[15] = heptane layer / raffinate layer, 50 g of dicofol solution conc. 50 in 90% aqueous methanol, 20 g heptane, 0 °C
[16] = heptane layer / raffinate layer, 50 g of dicofol solution conc. 50 in 90% aqueous methanol, 40 g heptane, 23 °C
[17] = ratio of DDTr D.C. to that of dicofol, dicofol solution conc. 8.4 in 90% aqueous methanol, 20 g heptane, 0 °C
[18] = ratio of DDTr D.C. to that of dicofol, dicofol solution conc. 10 in 90% aqueous methanol, 40 g heptane, 23 °C
[19] = ratio of DDTr D.C. to that of dicofol, dicofol solution conc. 16.7 in 90% aqueous methanol, 20 g heptane, 0 °C
[20] = ratio of DDTr D.C. to that of dicofol, dicofol solution conc. 16.7 in 90% aqueous methanol, 20 g heptane, 23 °C
[21] = ratio of DDTr D.C. to that of dicofol, dicofol solution conc. 20 in 90% aqueous methanol, 40 g heptane, 23 °C
[22] = ratio of DDTr D.C. to that of dicofol, dicofol solution conc. 30 in 90% aqueous methanol, 40 g heptane, 23 °C
[23] = ratio of DDTr D.C. to that of dicofol, dicofol solution conc. 33 in 90% aqueous methanol, 20 g heptane, 0 °C
[24] = ratio of DDTr D.C. to that of dicofol, dicofol solution conc. 40 in 90% aqueous methanol, 40 g heptane, 23 °C
[25] = ratio of DDTr D.C. to that of dicofol, dicofol solution conc. 50 in 90% aqueous methanol, 20 g heptane, 0 °C
[26] = ratio of DDTr D.C. to that of dicofol, dicofol solution conc. 50 in 90% aqueous methanol, 40 g heptane, 23 °C

SMILES | Distribution coefficient (D.C.) [1, 4] | Selectivity (Sel.) [1, 4] | Distribution coefficient (D.C.) [1, 5] | Selectivity (Sel.) [1, 5] | Distribution coefficient (D.C.) [1, 6] | Selectivity (Sel.) [1, 6] | Distribution coefficient (D.C.) [1, 7] | Distribution coefficient (D.C.) [1, 8] | Distribution coefficient (D.C.) [1, 9] | Distribution coefficient (D.C.) [1, 10] | Distribution coefficient (D.C.) [1, 11] | Distribution coefficient (D.C.) [1, 12] | Distribution coefficient (D.C.) [1, 13] | Distribution coefficient (D.C.) [1, 14] | Distribution coefficient (D.C.) [1, 15] | Distribution coefficient (D.C.) [1, 16] | Selectivity (Sel.) [1, 17] | Selectivity (Sel.) [1, 18] | Selectivity (Sel.) [1, 19] | Selectivity (Sel.) [1, 20] | other results
Clc1ccc(C(c2ccc(Cl)cc2)C(Cl)Cl)cc1 [p,p'-DDD, 1,1-bis-(4-chlorophenyl)-2,2-dichloroethane] | 0.66 | 2.1 | 0.71 | 2.1 | 0.79 | 2.2 | – | – | – | – | – | – | – | – | – | – | – | – | – | – | –
Clc1ccc(C(Cl)(c2ccc(Cl)cc2)C(Cl)(Cl)Cl)cc1 [p,p'-Cl-DDT, 1,1-bis-(4-chlorophenyl)-1,2,2,2-tetrachloroethane] | 3.7 | 11.8 | 3.8 | 11.4 | 3.8 | 10.8 | 9.1 | 7.5 | 4.4 | 4.1 | 5.3 | 4.0 | 2.6 | 2.8 | 1.5 | 2.1 | 23.3 | 23.4 | 22.4 | 12.2 | Selectivity (Sel.) [1, 21]: 16.8; Selectivity (Sel.) [1, 22]: 13.1; Selectivity (Sel.) [1, 23]: 14.9; Selectivity (Sel.) [1, 24]: 8.6; Selectivity (Sel.) [1, 25]: 9.4; Selectivity (Sel.) [1, 26]: 6.8; Distribution coefficient (D.C.) ([2]; 85% aqueous ethanol): 1.65; Selectivity (Sel.) ([2]; 85% aqueous ethanol): 2.22; Distribution coefficient (D.C.) ([2]; 87% aqueous ethanol): 1.48; Selectivity (Sel.) ([2]; 87% aqueous ethanol): 2.33; Distribution coefficient (D.C.) ([2]; 90% aqueous ethanol): 0.91; Selectivity (Sel.) ([2]; 90% aqueous ethanol): 1.20; Distribution coefficient (D.C.) ([3]; 4 % H₂O in Aq. MeOH): 1.9; Selectivity (Sel.) ([3]; 4 % H₂O in Aq. MeOH): 7.0; Distribution coefficient (D.C.) ([3]; 8 % H₂O in Aq. MeOH): 2.9; Selectivity (Sel.) ([3]; 8 % H₂O in Aq. MeOH): 10.1; Distribution coefficient (D.C.) ([3]; 12 % H₂O in Aq. MeOH): 4.6; Selectivity (Sel.) ([3]; 12 % H₂O in Aq. MeOH): 12.2; Distribution coefficient (D.C.) ([3]; 16 % H₂O in Aq. MeOH): 6.8; Selectivity (Sel.) ([3]; 16 % H₂O in Aq. MeOH): 11.4
Clc1ccc(C(c2ccc(Cl)cc2)C(Cl)(Cl)Cl)cc1 [p,p'-DDT, 1,1-bis-(4-chlorophenyl)-2,2,2-trichloroethane] | 1.9 | 5.9 | 1.9 | 5.6 | 2.1 | 6.0 | – | – | – | – | – | – | – | – | – | – | – | – | – | – | –
ClC(Cl)=C(c1ccc(Cl)cc1)c1ccccc1Cl [o,p'-DDE] | 2.4 | 7.6 | 2.4 | 7.2 | 2.4 | 6.8 | 3.6 | 3.9 | 3.2 | 3.4 | 3.5 | 2.4 | 1.8 | 2.32 | 1.3 | 1.66 | 17.3 | 12.2 | 16.1 | 10.1 | Selectivity (Sel.) [1, 21]: 11.0; Selectivity (Sel.) [1, 22]: 7.9; Selectivity (Sel.) [1, 23]: 10.5; Selectivity (Sel.) [1, 24]: 7.2; Selectivity (Sel.) [1, 25]: 7.9; Selectivity (Sel.) [1, 26]: 5.3; Distribution coefficient (D.C.) ([2]; 85% aqueous ethanol): 2.06; Selectivity (Sel.) ([2]; 85% aqueous ethanol): 2.78; Distribution coefficient (D.C.) ([2]; 87% aqueous ethanol): 1.28; Selectivity (Sel.) ([2]; 87% aqueous ethanol): 2.01; Distribution coefficient (D.C.) ([2]; 90% aqueous ethanol): 1.08; Selectivity (Sel.) ([2]; 90% aqueous ethanol): 1.42; Distribution coefficient (D.C.) ([3]; 4 % H₂O in Aq. MeOH): 1.5; Selectivity (Sel.) ([3]; 4 % H₂O in Aq. MeOH): 5.7; Distribution coefficient (D.C.) ([3]; 8 % H₂O in Aq. MeOH): 2.2; Selectivity (Sel.) ([3]; 8 % H₂O in Aq. MeOH): 7.7; Distribution coefficient (D.C.) ([3]; 12 % H₂O in Aq. MeOH): 3.1; Selectivity (Sel.) ([3]; 12 % H₂O in Aq. MeOH): 8.3; Distribution coefficient (D.C.) ([3]; 16 % H₂O in Aq. MeOH): 3.6; Selectivity (Sel.) ([3]; 16 % H₂O in Aq. MeOH): 6.1
